Measured values taken from the supplement of paper PMC8671470.

Columns and labels:
Details in all cases: 72 h
[1] = tested on: myeloid leukemia patient primary cells Pat.10; assay: cell viability (% survival relative to DMSO control); higher = less cytotoxic
In short: (§1)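 Where an area under the curve appears, it was computed with the drc and PharmacoGx R packages from log-logistic fits. Those fits used four parameters. The underlying viability data came from CellTiter-Glo after 72 h, normalised to DMSO and 10 μM proteasome-inhibitor wells, with thawed, Ficoll-purified AML or CML patient mononuclear cells at 10,000 cells/well in RPMI 1640 with 10% FBS on 384-well plates pre-printed with 70 compounds at five tenfold concentrations (1–10,000 nM) in duplicate.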

[2] = tested on: myeloid leukemia patient primary cells Pat.11; assay: as above
In short: as §1

[3] = tested on: myeloid leukemia patient primary cells Pat.15; assay: as above
In short: as §1

[4] = tested on: myeloid leukemia patient primary cells Pat.4; assay: as above
In short: as §1

[5] = tested on: myeloid leukemia patient primary cells Pat.14; assay: as above
In short: as §1

[6] = tested on: myeloid leukemia patient primary cells Pat.5; assay: as above
In short: as §1

[7] = tested on: myeloid leukemia patient primary cells Pat.13; assay: as above
In short: as §1

[8] = tested on: myeloid leukemia patient primary cells Pat.12; assay: as above
In short: as §1

[9] = tested on: myeloid leukemia patient primary cells Pat.2; assay: as above
In short: as §1

[10] = tested on: myeloid leukemia patient primary cells Pat.8; assay: as above
In short: as §1

[11] = tested on: myeloid leukemia patient primary cells Pat.9; assay: as above
In short: as §1

[12] = tested on: myeloid leukemia patient primary cells Pat.3; assay: as above
In short: as §1

[13] = tested on: myeloid leukemia patient primary cells Pat.7; assay: as above
In short: as §1

[14] = tested on: myeloid leukemia patient primary cells Pat.1; assay: as above
In short: as §1

[15] = tested on: HL-60; assay: cell viability (% survival relative to DMSO control); higher = less cytotoxic
In short: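 Four-parameter log-logistic fits in drc and PharmacoGx supplied area under the curve where it is given. Underlying viability came from CellTiter-Glo, normalised to DMSO and proteasome-inhibitor wells, with the proteasome inhibitor at 10 μM. HL-60 cells in RPMI 1640 plus 10% FBS had been rescreened against the full library at five tenfold concentrations of 1–10,000 nM, in duplicate on 384-well plates, with DMSO or 100 nM of one of three metabolic inhibitors, for 72 h at 37 °C, 5% CO2.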

[16] = tested on: K-562; assay: cell viability (% survival relative to DMSO control, bortezomib = 0%); higher = less cytotoxic
In short: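 Reported values are percent survival from duplicate wells, averaged. Fifteen myeloid leukaemia cell lines were treated in 384-well plates with compounds at 1, 10, 100, 1000 or 10000 nM for 72 h at 37 °C in 5% CO2. Signals from CellTiter-Glo luminescence were scaled with vehicle as 100% and a 10 µM positive control as 0%.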

CC[C@@]1(O)C(=O)OCc2c1cc1n(c2=O)Cc2cc3c(CN(C)C)c(O)ccc3nc2-1 [Topotecan]
cell viability [%]
Details	1 nM	10 nM	100 nM	1000 nM	10000 nM
[1]	84.6	88.3	35.4	6.65	1.3
[2]	99.8	97.2	92.4	76.2	53.3
[3]	95.4	89.4	83.5	54.8	0.856
[4]	75.3	84.2	> 100	82.5	4.14
[5]	96	97	72.4	58.2	6.19
[6]	91.7	66.1	53.1	19.8	0.265
[7]	85.7	91.7	92.3	97.4	21.9
[8]	95.3	97	92.1	93.5	48.3
[9]	90.7	92.9	95.9	72	39.5
[10]	76.3	69.7	93.5	87.2	27.3
[11]	78.4	58.3	31.8	58.8	1.24
[12]	90.9	89.8	20	18.6	2.85
[13]	80.1	94.3	81.4	34.7	< 0
[14]	83.6	80.9	98.6	96	28.6
[16]	90.8	92.7	48.3	13.2	4.27

cell viability [%], [15]
Details	0.001 µM	0.01 µM	0.1 µM	1 µM	10 µM
co-treatment: AZD3965 100 nM	99.6	98.4	7.08	3.55	2.51
co-treatment: DMSO vehicle	101	103	11.5	5.98	2.79
co-treatment: GSK2194069 100 nM	91.07	111	10.4	6.25	3.68
co-treatment: pictilisib 100 nM	102	98	9.22	5.76	3.31

CC(C)c1onc(-c2c(Cl)cccc2Cl)c1COc1ccc(/C=C/c2cccc(C(=O)O)c2)c(Cl)c1 [GW4064]
cell viability [%], [15]
Details	0.001 µM	0.01 µM	0.1 µM	1 µM	10 µM
co-treatment: AZD3965 100 nM	102	98.93	91	109	93.1
co-treatment: DMSO vehicle	99.99	99.3	101	99.9	99.6
co-treatment: GSK2194069 100 nM	99.3	98.9	97.7	90.85	75.5
co-treatment: pictilisib 100 nM	86.7	96.6	90.9	105	97.1

[16]
Details	cell viability [%]
1 nM	109
10 nM	107
100 nM	105
1000 nM	90.9
10000 nM	49.4
